# Assay results published in patent US4957923A, “Diuretic or antihypertensive composition” (Fujisawa Pharmaceutical Co., Ltd., priority 1988, dated 1990).
# Assays:
# [1] = test system: healthy male adult volunteers; experiment: Diuretic action (human); type: in vivo; settings: mean ± S.D.
# Procedure: To healthy male adult volunteers, 300 mg (the capsule of Example 3 below ×1) (6 men) or 600 mg (the capsule of Example 3 below ×2) (6 men) of compound A was orally […] administered in fasting condition, or 600 mg (the capsule of Example 3 below×2) (6 men) of compound A was orally administered 30 minutes after breakfast. In each group, the 24-hr urine volume before administration and that on day 1 after administration were respectively determined.
# DOCA hypertensive rats = experiment: Antihypertension action (DOCA hypertensive rats); type: in vivo, rat (Wistar)
# Procedure: Male Wistar rats, 10 weeks old, were subjected to left nephrectomy and 2 to 4 days after operation, deoxycorticosterone acetate was administered subcutaneously in a dose of 30 mg/ml/kg twice a week. The animals were given 1% saline for drinking water and the individuals showing a mean blood pressure of ≥150 mmHg at 15 weeks of age were submitted to the experiment. After catheterization, saline for drinking water was replaced with tap water. At the beginning of the experiment, the test rats had mean blood pressures from 152 to 204 mmHg, heart rates from 354 to 462 beats/min. and body weights from 232 to 318 g. 3~5 Animals per group were used.
# 3 Or 4 days before the beginning of the experiment, one end of a catheter for blood pressure measurement was passed from the femoral artery to the abdominal aorta of each rat and the other end was passed beneath the skin and fixed in exposed position in the dorsocervical region. The drug was orally administered once a day for 5 consecutive days. The rats had been deprived of food for about 3 hours before drug administration. The blood pressure was measured before administration and 5 hours after administration of days 1, 3 and 5. At each blood pressure measurement, the mean blood pressure was observed via a pressure transducer connected to the dorsocervical end of the catheter for blood pressure measurement and the stabilized mean blood pressure was recorded.
# Drug was suspended and diluted using a 0.5% solution of methylcellulose and 5ml/kg of the suspension was orally administered.
# [2] = test system: healthy male adult volunteers; experiment: Antihypertensive action (human); type: in vivo; settings: mean ± S.D.
# Procedure: To 6 healthy male adult volunteers, 150 mg of compound A (one capsule each of capsules shown in Examples 1 and 2 below) was orally administered twice a day at a 12-hour interval from 30 minutes after breakfast to 2 hours after supper for 8 consecutive days (except on day 8 when the administration was made only once in the morning) and the systolic blood pressure in standing position was measured.
# [3] = 3.2 mg/kg p.o. once a day, Day 1 before administration (baseline)
# [4] = 3.2 mg/kg p.o. once a day, Day 3 after 5 hr
# [5] = 3.2 mg/kg p.o. once a day, Day 3 before administration
# [6] = 3.2 mg/kg p.o. once a day, Day 5 after 5 hr
# [7] = 3.2 mg/kg p.o. once a day, Day 5 before administration
# [8] = 10 mg/kg p.o. once a day, Day 1 after 5 hr
# [9] = 10 mg/kg p.o. once a day, Day 1 before administration (baseline)
# [10] = 10 mg/kg p.o. once a day, Day 3 after 5 hr
# [11] = 10 mg/kg p.o. once a day, Day 3 before administration
# [12] = 10 mg/kg p.o. once a day, Day 5 after 5 hr
# [13] = 10 mg/kg p.o. once a day, Day 5 before administration
# [14] = 32 mg/kg p.o. once a day, Day 1 after 5 hr
# [15] = 32 mg/kg p.o. once a day, Day 1 before administration (baseline)
# [16] = 32 mg/kg p.o. once a day, Day 3 after 5 hr
# [17] = 32 mg/kg p.o. once a day, Day 3 before administration
# [18] = 32 mg/kg p.o. once a day, Day 5 after 5 hr
# [19] = 32 mg/kg p.o. once a day, Day 5 before administration
smiles,measurement,setting,value
"O=C(O)Cn1c(=O)n(Cc2ccc(Br)cc2F)c(=O)c2ccc(Cl)cc21 [Compound A, 2-[7-Chloro-3-(4-bromo-2-fluorobenzyl)-1,2,3,4-tetrahydro-2,4-dioxoquinazolin-1-yl]acetic acid]",Urine volume,"[1]; 300 mg p.o., without breakfast, 0-2 hr",95 ± 57 mL
same,Urine volume,"[1]; 300 mg p.o., without breakfast, 2-4 hr",136 ± 60 mL
same,Urine volume,"[1]; 300 mg p.o., without breakfast, 4-8 hr",328 ± 55 mL
same,Urine volume,"[1]; 300 mg p.o., without breakfast, 8-12 hr",340 ± 79 mL
same,Urine volume,"[1]; 300 mg p.o., without breakfast, 12-24 hr",609 ± 147 mL
same,Urine volume,"[1]; 300 mg p.o., without breakfast, -24-0 hr (before administration, baseline)",902 ± 256 mL
same,Urine volume,"[1]; 300 mg p.o., without breakfast, total 0-24 hr",1508 ± 274 mL
same,Urine volume,"[1]; 600 mg p.o., 30 min after breakfast, 0-2 hr",130 ± 46 mL
same,Urine volume,"[1]; 600 mg p.o., 30 min after breakfast, 2-4 hr",151 ± 19 mL
same,Urine volume,"[1]; 600 mg p.o., 30 min after breakfast, 4-8 hr",414 ± 161 mL
same,Urine volume,"[1]; 600 mg p.o., 30 min after breakfast, 8-12 hr",507 ± 139 mL
same,Urine volume,"[1]; 600 mg p.o., 30 min after breakfast, 12-24 hr",829 ± 240 mL
same,Urine volume,"[1]; 600 mg p.o., 30 min after breakfast, -24-0 hr (before administration, baseline)",1234 ± 212 mL
same,Urine volume,"[1]; 600 mg p.o., 30 min after breakfast, total 0-24 hr",2031 ± 362 mL
same,Urine volume,"[1]; 600 mg p.o., without breakfast, 0-2 hr",64 ± 24 mL
same,Urine volume,"[1]; 600 mg p.o., without breakfast, 2-4 hr",82 ± 32 mL
same,Urine volume,"[1]; 600 mg p.o., without breakfast, 4-8 hr",292 ± 50 mL
same,Urine volume,"[1]; 600 mg p.o., without breakfast, 8-12 hr",393 ± 141 mL
same,Urine volume,"[1]; 600 mg p.o., without breakfast, 12-24 hr",863 ± 253 mL
same,Urine volume,"[1]; 600 mg p.o., without breakfast, -24-0 hr (before administration, baseline)",982 ± 293 mL
same,Urine volume,"[1]; 600 mg p.o., without breakfast, total 0-24 hr",1693 ± 368 mL
same,Mean blood pressure,"DOCA hypertensive rats; 3.2 mg/kg p.o. once a day, Day 1 after 5 hr",148 mm Hg
same,Mean blood pressure,DOCA hypertensive rats; [3],175 mm Hg
same,Percentage of change (mean blood pressure),DOCA hypertensive rats; [3],0.0%
same,Mean blood pressure,DOCA hypertensive rats; [4],142 mm Hg
same,Percentage of change (mean blood pressure),DOCA hypertensive rats; [4],-18.6%
same,Mean blood pressure,DOCA hypertensive rats; [5],153 mm Hg
same,Percentage of change (mean blood pressure),DOCA hypertensive rats; [5],-13.4%
same,Mean blood pressure,DOCA hypertensive rats; [6],131 mm Hg
same,Percentage of change (mean blood pressure),DOCA hypertensive rats; [6],-24.9%
same,Mean blood pressure,DOCA hypertensive rats; [7],139 mm Hg
same,Percentage of change (mean blood pressure),DOCA hypertensive rats; [7],-21.0%
same,Mean blood pressure,DOCA hypertensive rats; [8],145 mm Hg
same,Percentage of change (mean blood pressure),DOCA hypertensive rats; [8],-13.0%
same,Mean blood pressure,DOCA hypertensive rats; [9],166 mm Hg
same,Percentage of change (mean blood pressure),DOCA hypertensive rats; [9],0.0%
same,Mean blood pressure,DOCA hypertensive rats; [10],127 mm Hg
same,Percentage of change (mean blood pressure),DOCA hypertensive rats; [10],-23.1%
same,Mean blood pressure,DOCA hypertensive rats; [11],137 mm Hg
same,Percentage of change (mean blood pressure),DOCA hypertensive rats; [11],-17.2%
same,Mean blood pressure,DOCA hypertensive rats; [12],118 mm Hg
same,Percentage of change (mean blood pressure),DOCA hypertensive rats; [12],-29.1%
same,Mean blood pressure,DOCA hypertensive rats; [13],127 mm Hg
same,Percentage of change (mean blood pressure),DOCA hypertensive rats; [13],-23.2%
same,Mean blood pressure,DOCA hypertensive rats; [14],133 mm Hg
same,Percentage of change (mean blood pressure),DOCA hypertensive rats; [14],-20.1%
same,Mean blood pressure,DOCA hypertensive rats; [15],168 mm Hg
same,Percentage of change (mean blood pressure),DOCA hypertensive rats; [15],0.0%
same,Mean blood pressure,DOCA hypertensive rats; [16],132 mm Hg
same,Percentage of change (mean blood pressure),DOCA hypertensive rats; [16],-20.1%
same,Mean blood pressure,DOCA hypertensive rats; [17],133 mm Hg
same,Percentage of change (mean blood pressure),DOCA hypertensive rats; [17],-19.2%
same,Mean blood pressure,DOCA hypertensive rats; [18],116 mm Hg
same,Percentage of change (mean blood pressure),DOCA hypertensive rats; [18],-30.2%
same,Mean blood pressure,DOCA hypertensive rats; [19],117 mm Hg
same,Percentage of change (mean blood pressure),DOCA hypertensive rats; [19],-29.5%
same,Systolic blood pressure in standing position,"[2]; 150 mg p.o. twice a day for 8 days, Day 9 immediately before breakfast",113 ± 3 mmHg
same,Systolic blood pressure in standing position,"[2]; 150 mg p.o. twice a day for 8 days, Day 10 immediately before breakfast",117 ± 6 mmHg
same,Systolic blood pressure in standing position,"[2]; 150 mg p.o. twice a day, Day 1 immediately before breakfast (before first dose, baseline)",121 ± 8 mmHg
same,Systolic blood pressure in standing position,"[2]; 150 mg p.o. twice a day, Day 2 immediately before breakfast",113 ± 6 mmHg
same,Systolic blood pressure in standing position,"[2]; 150 mg p.o. twice a day, Day 3 immediately before breakfast",114 ± 7 mmHg
same,Systolic blood pressure in standing position,"[2]; 150 mg p.o. twice a day, Day 4 immediately before breakfast",114 ± 5 mmHg
same,Systolic blood pressure in standing position,"[2]; 150 mg p.o. twice a day, Day 5 immediately before breakfast",110 ± 8 mmHg
same,Systolic blood pressure in standing position,"[2]; 150 mg p.o. twice a day, Day 6 immediately before breakfast",114 ± 6 mmHg
same,Systolic blood pressure in standing position,"[2]; 150 mg p.o. twice a day, Day 7 immediately before breakfast",116 ± 8 mmHg
same,Systolic blood pressure in standing position,"[2]; 150 mg p.o. twice a day, Day 8 immediately before breakfast",117 ± 5 mmHg
